In patent US10160785B2, “Antimicrobial peptides and their use for the treatment of topical infections” (priority 2015, dated 2018):
Where a SMILES comes first, the peptide text is derived from it.

Legend:
[1] = tested on: S. aureus (Liberec) biofilm; assay: Bacterial biofilm, remaining metabolic activity (MTT); type: cell-based, Staphylococcus aureus; conditions: remaining metabolic activity of biofilm, 20 h
Description: (§1) Inoculum of S. aureus (Liberec) or P. aeruginosa (Liberec) cultivated overnight in BHI medium was diluted with fresh BHI medium containing 1% glucose to a final concentration to be ca. 10^8 CFU/ml. Then this was pipetted (100 μl) to 96-multiwell polystyrene plate which was incubated at 37° C. under rotary shaking (300 RPM) for 24 h. Medium without bacteria in the wells was used as a negative control. Supernatant from each well was drained and the biofilm formed on the bottom and on the walls of the wells was cautiously washed three times by sterile physiological solution (300 μl). The peptides tested in the concentrations of 1-128 μmol.l^−1 were prepared by twofold serial dilution of their stock solution (1 mmol.l^−1) in fresh BHI medium and then pipetted (100 μl) to the wells with formed biofilms. The biofilms covered by BHI medium without peptide were used as a positive control. The plates were then incubated for 20 h as described above. After that the liquid was drained out and wells were washed twice with sterile physiological solution.
(§2) The metabolic activity of surviving bacterial cells in the biofilm was determined by staining with MTT (3-(4,5-dimethylthiazol-2-yl)-2,5-diphenyl-2H-tetrazolium bromide) as follows: The mixture of BHI medium (100 μl) and 10 μl of the stock solution of MTT (5 mg/ml in physiological solution) was added to each well and the plate was incubated 40 min at 37° C. The liquid was drained out and the insoluble formazan crystals formed by reduction inside the biofilm were dissolved with dimethyl sulphoxide (100 μl). The intensity of staining in each well was measured as absorbance at 540 nm on a Tecan Infinite M200 Pro reader (Tecan GmbH, Austria). Remaining activity of surviving cells inside the biofilm was expressed for each well in percentage according to the following equation:
(§3) [formula] where A is the absorbance of the tested compound, ABL is the absorbance of the negative control, and AC is the absorbance of control biofilm.

[2] = tested on: P. aeruginosa (Liberec) biofilm; assay: as above; type: cell-based, Pseudomonas aeruginosa; conditions: remaining metabolic activity of biofilm, 20 h
Description: as §1, §2, §3

[3] = in vitro; conditions: human
Description: The peptides in the concentrations 2-200 μmol.l^−1 were incubated with the suspension of human red blood cells (5% v/v) for 1 h at 37° C. in a physiological solution at a final volume of 0.2 ml. The samples were then centrifuged for 5 min at 250 g, and the absorbance of the supernatant was determined at 540 nm. Supernatants of red blood cells suspended in physiological solution and in 0.2% (v/v) TRITON X100 in physiological solution served as controls for zero hemolysis (blank) and 100% hemolysis, respectively. Hemolytic activity is expressed as the peptide concentration required for lysis of 50% of human erythrocytes in the assay (LC50).

[4] = tested on: Candida albicans (Olomouc) biofilm; assay: C. albicans biofilm, remaining metabolic activity (XTT); type: cell-based
Description: Candida albicans (Olomouc) was sub-cultured overnight in YPD medium (10 g yeast extract (DIFCO, USA), 20 g peptone (OXOID), 20 g glucose (Penta) dissolved in 1 L of distilled water) at constant shaking (100 RPM) at 37° C. Next day, the overnight culture was diluted 1:100 into fresh YPD medium and incubated at constant shaking (200 RPM) at 37° C. until the mid-exponential growth phase was reached. Then the cells were harvested and washed twice by centrifugation in physiological solution (5000 RPM; 5 min). Cells were suspended in sterile salt solution and their optical density was determined at 600 nm.
A final yeast suspension was prepared at a cell density of 1×10^6 CFU (corresponding to optical density of 0.17 at 600 nm) in RPMI 1640 medium with L-glutamine (BioSera), NaHCO3 (2 g/l; Penta) and 0.165 mol.l^−1 MOPS (Duchefa)—further as RPMI broth medium 1.
Biofilms were formed on commercially available sterile, polystyrene, flat-bottomed, 96-well microtiter plates (TPP, SW). Cell suspension (100 μl) was pipetted into selected wells of a microtiter plate and incubated without shaking for 2 hours at 37° C. Afterwards, the wells were washed twice with sterile PBS buffer (1.44 g Na2HPO4, 0.24 g KH2PO4, 0.2 g KCl and 8 g NaCl in 1 l distilled water, pH=7; Penta). Fresh RPMI broth medium 1 (100 μl) was added to each well and the plate was sealed with parafilm and incubated without shaking for 48 hours at 37° C.
Planktonic and non-adherent cells were removed by threefold washing of the biofilm with sterile PBS buffer (200 μl). A twofold serial dilution was used to reach required peptide concentration (in RPMI broth medium 1) in each well. Peptide concentrations range was between 0.39-200 μmol.l^−1. Plates were then sealed with parafilm and incubated for 20 hours at 37° C.
The metabolic activity of surviving Candida cells in the treated biofilm was determined by staining with XTT (2,3-Bis(2-methoxy-4-nitro-5-sulphophenyl)-2H-tetrazolium-5-carboxanilide). Stock solution of PMS (phenazine methosulfate; 7.5 g/l; SIGMA, Czech Republic) stored at −20° C. was diluted in PBS buffer 1:100. Diluted PMS was further mixed (2:25) with stock solution of XTT (0.5 g/l; Alchimica, Slovakia) dissolved in PBS/RPMI broth medium (1:1). Mixture (100 μl) of PMS and XTT was added into treated biofilm in the wells and incubated for 90 min at 37° C. Then the intensity of staining in each well was measured as absorbance at 540 nm on a Tecan Infinite M200 Pro reader (Tecan GmbH, Austria). Remaining metabolic activity of the cells in the biofilm was expressed for each well in percentage and calculated as follows:
[formula] where A is the absorbance of tested compound, ABL is the absorbance of negative control and AC is the absorbance of control untreated biofilm. The non-inoculated wells served as negative control. Inoculated wells not treated with compound served as positive control. Amphotericin B was used as control drug to ensure quality of Candida albicans. The values of remaining metabolic activity of treated biofilms are shown at Table 5.

[5] = peptide concentration 8 μmol · l^−1
[6] = peptide concentration 16 μmol · l^−1
[7] = peptide concentration 32 μmol · l^−1
[8] = peptide concentration 64 μmol · l^−1
[9] = peptide concentration 128 μmol · l^−1
[10] = peptide concentration 6.25 μmol · l^−1, 20 hours
[11] = peptide concentration 12.5 μmol · l^−1, 20 hours
[12] = peptide concentration 25 μmol · l^−1, 20 hours
[13] = peptide concentration 50 μmol · l^−1, 20 hours
[14] = peptide concentration 100 μmol · l^−1, 20 hours
[15] = peptide concentration 200 μmol · l^−1, 20 hours

Compound	Metabolic activity (%) S. aureus (Liberec) [1, 5] [%]	Metabolic activity (%) S. aureus (Liberec) [1, 6] [%]	Metabolic activity (%) S. aureus (Liberec) [1, 7] [%]	Metabolic activity (%) S. aureus (Liberec) [1, 8] [%]	Metabolic activity (%) S. aureus (Liberec) [1, 9] [%]	Metabolic activity (%) P. aeruginosa (Liberec) [2, 5] [%]	Metabolic activity (%) P. aeruginosa (Liberec) [2, 6] [%]	Metabolic activity (%) P. aeruginosa (Liberec) [2, 7] [%]	Metabolic activity (%) P. aeruginosa (Liberec) [2, 8] [%]	Metabolic activity (%) P. aeruginosa (Liberec) [2, 9] [%]	CC50 at 1 h [3] [µM]	Metabolic activity of C. albicans (%) [4, 10] [%]	Metabolic activity of C. albicans (%) [4, 11] [%]	Metabolic activity of C. albicans (%) [4, 12] [%]	Metabolic activity of C. albicans (%) [4, 13] [%]	Metabolic activity of C. albicans (%) [4, 14] [%]	Metabolic activity of C. albicans (%) [4, 15] [%]	HC50 at 1 h [3] [µM]
NCC[C@H](O)C(=O)N[C@@H]1C[C@H](N)[C@@H](O[C@H]2O[C@H](CN)[C@@H](O)[C@H](O)[C@H]2O)[C@H](O)[C@H]1O[C@H]1O[C@H](CO)[C@@H](O)[C@H](N)[C@H]1O [Amikacin, reference compound]	95.4	102.4	108.7	82.4	104.0	80.0	62.9	40.4	20.3	11.8								
CC[C@@H](C)[C@@H](NC(=O)CN)C(=O)N[C@H](CC(C)C)C(=O)N[C@H](CO)C(=O)N[C@H](CO)C(=O)N[C@H](CC(C)C)C(=O)N[C@H](CC(C)C)C(=O)N[C@H](CCCCN)C(=O)N[C@H](CCCCN)C(=O)N[C@H](CC(C)C)C(=O)N[C@H](CCCCN)C(=O)N[C@H](CCCCN)C(=O)N[C@@H](C(=O)N[C@@H](C(=O)N[C@H](C)C(=O)N[C@H](CCCCN)C(N)=O)[C@H](C)CC)[C@H](C)CC [IV] (HELM PEPTIDE1{G.[dI].[dL].[dS].[dS].[dL].[dL].[dK].[dK].[dL].[dK].[dK].[dI].[dI].[dA].[dK].[am]}$$$$V2.0)	65.5	34.2	7.1	3.0	0.0	56.5	69.5	56.0	59.6	21.7	333	106.9	37.2	6.0	2.3	2.1	0.5	
CN[C@H](CC(C)C)C(=O)N[C@H]1C(=O)N[C@@H](CC(N)=O)C(=O)N[C@H]2C(=O)N[C@H]3C(=O)N[C@H](C(=O)N[C@H](C(=O)O)c4cc(O)cc(O)c4-c4cc3ccc4O)[C@H](O)c3ccc(c(Cl)c3)Oc3cc2cc(c3O[C@@H]2O[C@H](CO)[C@@H](O)[C@H](O)[C@H]2O[C@H]2C[C@](C)(N)[C@H](O)[C@H](C)O2)Oc2ccc(cc2Cl)[C@H]1O [Vancomycin, reference compound]	52.8	15.9	9.7	8.5	6.3													
CC[C@@H](C)[C@@H](NC(=O)CN)C(=O)N[C@H](CC(C)C)C(=O)N[C@H](CO)C(=O)N[C@H](CO)C(=O)N[C@H](CC(C)C)C(=O)N[C@H](Cc1c[nH]c2ccccc12)C(=O)N[C@H](CCCCN)C(=O)N[C@H](CCCCN)C(=O)N[C@H](CC(C)C)C(=O)N[C@H](CCCCN)C(=O)N[C@H](CCCCN)C(=O)N[C@@H](C(=O)N[C@@H](C(=O)N[C@H](C)C(=O)N[C@H](CCCCN)C(N)=O)[C@H](C)CC)[C@H](C)CC [XIII] (HELM PEPTIDE1{G.[dI].[dL].[dS].[dS].[dL].[dW].[dK].[dK].[dL].[dK].[dK].[dI].[dI].[dA].[dK].[am]}$$$$V2.0)	71.6	33.8	21.5	20.4	5.3	71.2	65.8	61.2	73.6	23.0	191	78.3	56.9	37.2	10.9	5.8	4.9	
H-GILSSLLKKLKKIIAK-NH2 [III]	87.8	89.6	78.4	15.9	2.4						284	104.7	113.6	87.2	31.1	28.4	0.0	
H-GILSSLWKKLKKIIAK-NH2 [XII]	52.2	31.5	18.9	14.7	1.0	77.3	69.3	66.9	44.4	57.9	197	86.8	80.3	94.8	63.6	6.2	3.2	
H-GIMSSLMKKLAAHIKK-NH2 [VIII]																		> 400
